In ChEMBL document CHEMBL5143645, “Synthesis of harmine-nitric oxide donor derivatives as potential antitumor agents” (Bioorg Med Chem Lett, 2022):
The source made the active and inactive calls. The calls are words filed in the database; no cut-off is given here.

Assays:
[1] = test system: BGC-823; assay: Antiproliferative activity against human BGC-823 cells assessed as reduction in cell viability incubated for 72 hrs by CCK-8 assay; type: functional, cell-based; details: BGC-823, 72 h
[2] = test system: HepG2; assay: Antiproliferative activity against human HepG2 cells assessed as reduction in cell viability incubated for 72 hrs by CCK-8 assay; type: functional, cell-based; details: HepG2, 72 h
[3] = test system: A549; assay: Antiproliferative activity against human A549 cells assessed as reduction in cell viability incubated for 72 hrs by CCK-8 assay; type: functional, cell-based; details: A549, 72 h
[4] = test system: HCT-116; assay: Antiproliferative activity against human HCT-116 cells assessed as reduction in cell viability incubated for 72 hrs by CCK-8 assay; type: functional, cell-based; details: HCT-116, 72 h
[5] = Cytotoxicity against human L02 cells assessed as reduction in cell viability incubated for 72 hrs by CCK-8 assay; type: toxicity, cell-based
[6] = test system: MCF7; assay: Antiproliferative activity against human MCF7 cells assessed as reduction in cell viability incubated for 72 hrs by CCK-8 assay; type: functional, cell-based; details: MCF7, 72 h
[7] = Acute toxicity in ICR mouse assessed as death time at 10 mg/kg, ip measured over 14 days; type: organism-based; details: in vivo, 336 h, time 14 day
[8] = test system: HepG2; assay: Induction of cell cycle arrest in human HepG2 cells assessed as accumulation of cells at G2/M phase at 1.5 uM incubated for 24 hrs by PI staining based flow cytometry analysis (reference value: 14.58%); type: functional
[9] = test system: HepG2; assay: Induction of apoptosis in human HepG2 cells assessed as necrotic cells at 15 uM incubated for 24 hrs by PI and annexin V-FITC staining based flow cytometry (reference value: 0.36%); type: functional
[10] = test system: HepG2; assay: Induction of cell cycle arrest in human HepG2 cells assessed as accumulation of cells at S phase at 1.5 uM incubated for 24 hrs by PI staining based flow cytometry analysis (reference value: 42.03%); type: functional
[11] = test system: HepG2; assay: Induction of apoptosis in human HepG2 cells assessed as late apoptotic cells at 1.5 uM incubated for 24 hrs by PI and annexin V-FITC staining based flow cytometry (reference value: 0.36%); type: functional
[12] = test system: HepG2; assay: Induction of NO release in human HepG2 cells assessed as increase in mean fluorescence intensity at 1 to 9 uM incubated for 72 hrs by DAF-FM DA dye based fluorescence microscopic analysis; type: functional, cell-based; details: dose 1-9 µM
[13] = Acute toxicity in ICR mouse assessed as abnormality in drinking at less than 100 mg/kg, ip measured over 14 days; type: organism-based; details: in vivo, 336 h, time 14 day
[14] = test system: HepG2; assay: Induction of cell cycle arrest in human HepG2 cells assessed as accumulation of cells at G1 phase at 7.5 uM incubated for 24 hrs by PI staining based flow cytometry analysis (reference value: 42.39%); type: functional
[15] = test system: HepG2; assay: Induction of apoptosis in human HepG2 cells assessed as viable cells at 7.5 uM incubated for 24 hrs by PI and annexin V-FITC staining based flow cytometry (reference value: 93.97%); type: functional; details: read-out: Activity
[16] = test system: HepG2; assay: Induction of cell cycle arrest in human HepG2 cells assessed as accumulation of cells at G2/M phase at 7.5 uM incubated for 24 hrs by PI staining based flow cytometry analysis (reference value: 14.58%); type: functional
[17] = Apparent permeability across apical to basolateral side in human Caco-2 cells at 2 uM measured after 2 hrs by […] dye based microplate reader analysis; type: ADME, cell-based
[18] = test system: HepG2; assay: Induction of apoptosis in human HepG2 cells assessed as late apoptotic cells at 15 uM incubated for 24 hrs by PI and annexin V-FITC staining based flow cytometry (reference value: 0.36%); type: functional
[19] = test system: HepG2; assay: Induction of cell cycle arrest in human HepG2 cells assessed as accumulation of cells at G1 phase at 15 uM incubated for 24 hrs by PI staining based flow cytometry analysis (reference value: 42.39%); type: functional
[20] = Acute toxicity in ICR mouse assessed as abnormality in eating at less than 100 mg/kg, ip measured over 14 days; type: organism-based; details: in vivo, 336 h, time 14 day
[21] = Apparent permeability across basolateral to apical side in human Caco-2 cells at 2 uM measured after 2 hrs by […] dye based microplate reader analysis; type: ADME, cell-based
[22] = Acute toxicity in ICR mouse assessed as change in activity at less than 100 mg/kg, ip measured over 14 days; type: organism-based; details: in vivo, 336 h, time 14 day
[23] = test system: HepG2; assay: Induction of apoptosis in human HepG2 cells assessed as early apoptotic cells at 1.5 uM incubated for 24 hrs by PI and annexin V-FITC staining based flow cytometry (reference value: 2.68%); type: functional
[24] = test system: HepG2; assay: Induction of apoptosis in human HepG2 cells assessed as viable cells at 1.5 uM incubated for 24 hrs by PI and annexin V-FITC staining based flow cytometry (reference value: 93.97%); type: functional; details: read-out: Activity
[25] = Stability of the compound in PBS at pH 7.4 assessed as parent compound remaining at 40 uM measured up to 36 hrs by HPLC analysis; type: physicochemical; details: buffer, pH 7.4, 36 h
[26] = Stability in Sprague-Dawley rat plasma assessed as parent compound remaining at 40 uM measured up to 36 hrs by HPLC analysis; type: ADME, cell-free
[27] = test system: HepG2; assay: Induction of apoptosis in human HepG2 cells assessed as necrotic cells at 1.5 uM incubated for 24 hrs by PI and annexin V-FITC staining based flow cytometry (reference value: 0.36%); type: functional
[28] = test system: HepG2; assay: Induction of apoptosis in human HepG2 cells assessed as early apoptotic cells at 15 uM incubated for 24 hrs by PI and annexin V-FITC staining based flow cytometry (reference value: 2.68%); type: functional
[29] = Acute toxicity in ICR mouse assessed as death time at 50 mg/kg, ip measured over 14 days; type: organism-based; details: in vivo, 336 h, time 14 day
[30] = test system: HepG2; assay: Induction of apoptosis in human HepG2 cells assessed as viable cells at 15 uM incubated for 24 hrs by PI and annexin V-FITC staining based flow cytometry (reference value: 93.97%); type: functional; details: read-out: Activity
[31] = test system: HepG2; assay: Induction of cell cycle arrest in human HepG2 cells assessed as accumulation of cells at S phase at 7.5 uM incubated for 24 hrs by PI staining based flow cytometry analysis (reference value: 42.03%); type: functional
[32] = Acute toxicity in ip dosed ICR mouse assessed as maximum tolerated dose measured over 14 days; type: organism-based; details: in vivo, time 14 day
[33] = test system: HepG2; assay: Induction of cell cycle arrest in human HepG2 cells assessed as accumulation of cells at G2/M phase at 15 uM incubated for 24 hrs by PI staining based flow cytometry analysis (reference value: 14.58%); type: functional
[34] = test system: HepG2; assay: Induction of cell cycle arrest in human HepG2 cells assessed as accumulation of cells at G1 phase at 1.5 uM incubated for 24 hrs by PI staining based flow cytometry analysis (reference value: 42.39%); type: functional
[35] = test system: HepG2; assay: Induction of NO release in human HepG2 cells assessed as increase in mean fluorescence intensity at 1.5 uM incubated for 72 hrs by DAF-FM DA dye based fluorescence microscopic analysis; type: functional, cell-based
[36] = Acute toxicity in ICR mouse assessed as change in body weight at less than 100 mg/kg, ip measured over 14 days; type: organism-based; details: in vivo, 336 h, time 14 day
[37] = test system: HepG2; assay: Induction of apoptosis in human HepG2 cells assessed as early apoptotic cells at 7.5 uM incubated for 24 hrs by PI and annexin V-FITC staining based flow cytometry (reference value: 2.68%); type: functional
[38] = test system: HepG2; assay: Induction of cell cycle arrest in human HepG2 cells assessed as accumulation of cells at S phase at 15 uM incubated for 24 hrs by PI staining based flow cytometry analysis (reference value: 42.03%); type: functional
[39] = test system: HepG2; assay: Induction of apoptosis in human HepG2 cells assessed as necrotic cells at 7.5 uM incubated for 24 hrs by PI and annexin V-FITC staining based flow cytometry (reference value: 0.36%); type: functional
[40] = test system: HepG2; assay: Induction of NO release in human HepG2 cells assessed as increase in mean fluorescence intensity at 1 uM incubated for 72 hrs by DAF-FM DA dye based fluorescence microscopic analysis; type: functional, cell-based
[41] = test system: HepG2; assay: Induction of apoptosis in human HepG2 cells assessed as late apoptotic cells at 7.5 uM incubated for 24 hrs by PI and annexin V-FITC staining based flow cytometry (reference value: 0.36%); type: functional

## O=S(=O)(c1ccccc1)c1c(OCCCO)no[n+]1[O-]
[1]
  IC50: 11.8 µM
[2]
  IC50: 6.6 µM
[3]
  IC50: 7.93 µM
[4]
  IC50: 9.11 µM
[5]
  IC50 at 72 h: 21.7 µM
[6]
  IC50: 7.33 µM

## COc1ccc2c(c1)[nH]c1c(C)nccc12 [HARMINE]
[1]
  IC50: 15.6 µM
[2]
  IC50: 16.8 µM
[7]
  Activity: Non-Toxic
[3]
  IC50: 5.23 µM
[4]
  IC50: 6.94 µM
[5]
  IC50 at 72 h: 25.1 µM
[6]
  IC50: 15.3 µM

## COc1cccc2c1C(=O)c1c(O)c3c(c(O)c1C2=O)C[C@@](O)(C(=O)CO)C[C@@H]3O[C@H]1C[C@H](N)[C@H](O)[C@H](C)O1 [DOXORUBICIN]
[1]
  IC50: 0.66 µM
[2]
  IC50: 0.425 µM
[3]
  IC50: 1.05 µM
[4]
  IC50: 0.87 µM
[6]
  IC50: 0.38 µM

## O=S(=O)(c1ccccc1)c1c(OCCCCO)no[n+]1[O-]
[1]
  IC50: 3.14 µM
[2]
  IC50: 4.99 µM
[3]
  IC50: 3.49 µM
[4]
  IC50: 6.16 µM
[5]
  IC50 at 72 h: 17.9 µM
[6]
  IC50: 4.94 µM

## Cc1c2c(cc[n+]1Cc1ccccc1)c1ccc(OCC(=O)O)cc1n2CCCc1ccccc1
[1]
  IC50: 37.4 µM
[2]
  IC50: 113 µM
[3]
  IC50: 52.9 µM
[4]
  IC50: 40 µM
[5]
  IC50 at 72 h: 90.3 µM
[6]
  IC50: 26.1 µM

## Br.Cc1c2c(cc[n+]1Cc1ccccc1)c1ccc(OCC(=O)OCCCCOc3no[n+]([O-])c3S(=O)(=O)c3ccccc3)cc1n2CCCc1ccccc1
[8]
  Activity: 18.57%
[9]
  Activity: 6.08%
[10]
  Activity: 40.75%
[11]
  Activity: 4.28%
[12]
  Activity: Active
[13]
  Activity: Non-Toxic
[14]
  Activity: 33.77%
[15]
  viability at 7.5 µM: 77.2%
[16]
  Activity: 20.03%
[17]
  Papp A→B at 2 h, 2 µM: < 0.05 ×10⁻⁶ cm/s
[18]
  Activity: 14.73%
[1]
  IC50: 8.68 µM
[2]
  IC50: 1.79 µM
[19]
  Activity: 33.22%
[20]
  Activity: Non-Toxic
[21]
  Papp B→A at 2 h, 2 µM: < 0.05 ×10⁻⁶ cm/s
[22]
  Activity: Non-Toxic
[23]
  Activity: 10.11%
[24]
  viability at 1.5 µM: 81.2%
[7]
  Activity: Non-Toxic
[25]
  Stability: Stable
[3]
  IC50: 3.43 µM
[4]
  IC50: 7.77 µM
[26]
  Stability: Stable
[27]
  Activity: 4.44%
[28]
  Activity: 20.86%
[29]
  Activity: Non-Toxic
[30]
  viability at 15 µM: 58.3%
[31]
  Activity: 46.2%
[32]
  MTD at 336 h: 100 mg/kg
[33]
  Activity: 30.22%
[5]
  IC50 at 72 h: 10 µM
[34]
  Activity: 40.68%
[35]
  Activity: Active
[36]
  Activity: Non-Toxic
[37]
  Activity: 12.78%
[38]
  Activity: 36.56%
[39]
  Activity: 4.45%
[6]
  IC50: 2.85 µM
[40]
  Activity: Active
[41]
  Activity: 5.56%
